What was measured:
[1] = Half life (t) of enzymatic phosphodiester hydrolysis of compound towards calf spleen (CS-PDE) at a concentration of 20 microg; assay type: ADME, Bos taurus; details: cattle, calf spleen phosphodiesterase (CS-PDE)
[2] = Half life (t) of enzymatic phosphodiester hydrolysis of compound towards snake venom (SV-PDE) at a concentration of 4 microg; assay type: ADME; details: serpentes, snake venom phosphodiesterase (SV-PDE)

SMILES: COP(=O)(OC[C@H]1O[C@@H](n2ccc(N)nc2=O)C[C@@H]1OP(=O)(O)OC[C@H]1O[C@@H](n2cc(I)c3c(=O)[nH]c(N)nc32)C[C@@H]1OP(=O)(O)OC[C@H]1O[C@@H](n2ccc(N)nc2=O)C[C@@H]1O)O[C@H]1C[C@H](n2cc(I)c3c(=O)[nH]c(N)nc32)O[C@@H]1COP(=O)(O)O[C@H]1C[C@H](n2ccc(N)nc2=O)O[C@@H]1COP(=O)(O)O[C@H]1C[C@H](n2cc(I)c3c(=O)[nH]c(N)nc32)O[C@@H]1COP(=O)(O)O[C@H]1C[C@H](n2ccc(N)nc2=O)O[C@@H]1COP(=O)(O)O[C@H]1C[C@H](n2cc(I)c3c(=O)[nH]c(N)nc32)O[C@@H]1COP(=O)(O)O (some centres not stated)
- half-life [1]: > 1200 min
- half-life [2]: 17 min

SMILES: Nc1ccn([C@H]2C[C@H](OP(=O)(O)OC[C@H]3O[C@@H](n4cnc5c(=O)[nH]c(N)nc54)C[C@@H]3OP(=O)(O)OC[C@H]3O[C@@H](n4ccc(N)nc4=O)C[C@@H]3OP(=O)(O)OC[C@H]3O[C@@H](n4cnc5c(=O)[nH]c(N)nc54)C[C@@H]3OP(=O)(O)OC[C@H]3O[C@@H](n4ccc(N)nc4=O)C[C@@H]3OP(=O)(O)OC[C@H]3O[C@@H](n4cnc5c(=O)[nH]c(N)nc54)CC3OP(=O)(O)OC[C@H]3O[C@@H](n4ccc(N)nc4=O)C[C@@H]3O)[C@@H](COP(=O)(O)O[C@H]3C[C@H](n4cnc5c(=O)[nH]c(N)nc54)O[C@@H]3COP(=O)(O)O)O2)c(=O)n1 (some centres not stated)
- half-life [1]: 82 min
- half-life [2]: 2.5 min

SMILES: COP(=O)(OC[C@H]1O[C@@H](n2ccc(N)nc2=O)C[C@@H]1OP(=O)(O)OC[C@H]1O[C@@H](n2cc(C)c3c(=O)[nH]c(N)nc32)C[C@@H]1OP(=O)(O)OC[C@H]1O[C@@H](n2ccc(N)nc2=O)C[C@@H]1O)O[C@H]1C[C@H](n2cc(C)c3c(=O)[nH]c(N)nc32)O[C@@H]1COP(=O)(O)O[C@H]1C[C@H](n2ccc(N)nc2=O)O[C@@H]1COP(=O)(O)O[C@H]1C[C@H](n2cc(C)c3c(=O)[nH]c(N)nc32)O[C@@H]1COP(=O)(O)O[C@H]1C[C@H](n2ccc(N)nc2=O)O[C@@H]1COP(=O)(O)O[C@H]1C[C@H](n2cc(C)c3c(=O)[nH]c(N)nc32)O[C@@H]1COP(=O)(O)O (some centres not stated)
- half-life [1]: > 1200 min
- half-life [2]: 16 min

SMILES: COP(=O)(OC[C@H]1O[C@@H](n2ccc(N)nc2=O)C[C@@H]1OP(=O)(O)OC[C@H]1O[C@@H](n2ccc3c(=O)[nH]c(N)nc32)C[C@@H]1OP(=O)(O)OC[C@H]1O[C@@H](n2ccc(N)nc2=O)C[C@@H]1O)O[C@H]1C[C@H](n2ccc3c(=O)[nH]c(N)nc32)O[C@@H]1COP(=O)(O)O[C@H]1C[C@H](n2ccc(N)nc2=O)O[C@@H]1COP(=O)(O)O[C@H]1C[C@H](n2ccc3c(=O)[nH]c(N)nc32)O[C@@H]1COP(=O)(O)O[C@H]1C[C@H](n2ccc(N)nc2=O)O[C@@H]1COP(=O)(O)O[C@H]1C[C@H](n2ccc3c(=O)[nH]c(N)nc32)O[C@@H]1COP(=O)(O)O (some centres not stated)
- half-life [1]: ~1000 min
- half-life [2]: 1.3 min

SMILES: Nc1nc2c(ncn2[C@H]2C[C@H](O)[C@@H](COP(=O)(O)O[C@H]3C[C@H](n4cc(I)c5c(=O)[nH]c(N)nc54)O[C@@H]3COP(=O)(O)O[C@H]3C[C@H](n4cc(I)c5c(=O)[nH]c(N)nc54)O[C@@H]3COP(=O)(O)O[C@H]3C[C@H](n4cc(I)c5c(=O)[nH]c(N)nc54)O[C@@H]3COP(=O)(O)O[C@H]3C[C@H](n4cc(I)c5c(=O)[nH]c(N)nc54)O[C@@H]3COP(=O)(O)O[C@H]3C[C@H](n4cc(I)c5c(=O)[nH]c(N)nc54)O[C@@H]3COP(=O)(O)O)O2)c(=O)[nH]1
- half-life [1]: > 1200 min
- half-life [2]: 26 min

SMILES: Nc1nc2c(ccn2[C@H]2C[C@H](OP(=O)(O)OC[C@H]3O[C@@H](n4ccc5c(=O)[nH]c(N)nc54)C[C@@H]3OP(=O)(O)OC[C@H]3O[C@@H](n4ccc5c(=O)[nH]c(N)nc54)C[C@@H]3OP(=O)(O)OC[C@H]3O[C@@H](n4ccc5c(=O)[nH]c(N)nc54)C[C@@H]3OP(=O)(O)OC[C@H]3O[C@@H](n4ccc5c(=O)[nH]c(N)nc54)C[C@@H]3OP(=O)(O)OC[C@H]3O[C@@H](n4cnc5c(=O)[nH]c(N)nc54)C[C@@H]3O)[C@@H](COP(=O)(O)O)O2)c(=O)[nH]1
- half-life [1]: > 1200 min
- half-life [2]: 2.5 min

Source: ChEMBL document CHEMBL1128106, “Oligonucleotide duplex stability controlled by the 7-substituents of 7-deazaguanine bases” (Bioorg Med Chem Lett, 1995)
